Data set [1] concerns AtT-20 cells. The experiment in a line: Suppression of CRF-induced ACTH secretion from AtT-20 cells. The note with it: 10 nM CRF, 90 minutes; fatty acid with BSA.
The test system of data set [2] is 3T3-L1 cells. Nature of the data set: Lipolysis (glycerol production) in 3T3-L1 adipose differentiation cells stimulated with isoproterenol. The note with it: 1×10^−9 M isoproterenol plus fatty acid, 2 hours; differentiated 3T3-L1 cells. The data set is classed as cell-based, mouse. The protocol:
Effects on lipolysis were examined using mouse fibroblast cell line 3T3-L1 cells capable of differentiating into adipocytes. […] The 3T3-L1 cells were plated on a plate and incubated to become confluent. The cells were then treated for 48 hours in the aforesaid medium containing 10 μg/ml of insulin, 0.5 mM 3-isobutyl-1-methylxanthine (IBMX), 2.5 μM dexamethasone to induce differentiation into adipose. Incubation was continued for further 11 days. After the 3T3-L1 cells were differentiated into adipose, a change in the amount of glycerol produced by lipolysis was assayed. After the cells were washed with modified Krebs-Ringer buffer, 1×10^−9 M isoproterenol was added to the cell and simultaneously a fatty acid was added thereto, followed by treatment for 2 hours. The supernatant was then recovered. The glycerol content in the supernatant was determined using Free Glycerol Determination Kit (Sigma).

The target of data set [3] is T1, human 14273 (Homo sapiens, UniProt Q5NUL3).
T1 construct: expressed in transfected cells; host or cells: CHO-K1, transient transfection (Lipofectamine) with the pAKKO-111-based expression vector
T1 sequence (Q5NUL3 1-361): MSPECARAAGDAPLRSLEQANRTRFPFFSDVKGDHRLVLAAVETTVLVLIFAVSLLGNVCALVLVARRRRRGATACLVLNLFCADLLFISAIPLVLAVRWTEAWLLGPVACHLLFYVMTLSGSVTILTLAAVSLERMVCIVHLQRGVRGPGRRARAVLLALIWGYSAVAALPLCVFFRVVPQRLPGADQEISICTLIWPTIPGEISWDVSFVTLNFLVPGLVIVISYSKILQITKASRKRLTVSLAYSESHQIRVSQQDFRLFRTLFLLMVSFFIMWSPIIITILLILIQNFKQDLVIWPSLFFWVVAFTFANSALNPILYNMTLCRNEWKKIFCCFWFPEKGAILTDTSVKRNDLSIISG
The experiment in a line: Change in intracellular calcium level (FLIPR) in CHO-K1 cells transiently expressing human 14273. The class given is cell-based. The note with it: 30 μM fatty acid (FIG. 1-5); human 14273-expressed CHO-K1 cells; no response in expression vector alone-transfected control cells. The method, then:
(§1) CHO-K1 cells were incubated in Ham F-12 medium (Invitrogen) containing […] calf fetal serum, unless otherwise indicated. On the day before transfection, the cells were plated in 4.5×10^5/10 cm^2 and incubated at 37° C., for 15 hours or longer in a CO2 incubator adjusted to a 5% CO2 concentration. Transfection was carried out by a modification of the procedure described in the protocol attached to the reagent, using Lipofectamine reagent (Invitrogen). Where a 6-well plate was used for the incubator, the procedure was performed as follows. First, 2 tubes each having a 1.5 ml volume were prepared and 100 μl each of Opti-MEM-1 medium (Invitrogen) were dispensed in each tube. Next, after 1 μg of the expression vector was charged in one tube and in another tube 6 μl of the Lipofectamine reagent was charged, they were mixed and settled at room temperature for 20 minutes. A mixture for transfection of The resulting solution was added with 800 μl of Opti-MEM-1 medium and the resulting mixture for transfection was added to CHO-K1 cells previously washed with Opti-MEM-1 medium, followed by incubation in a CO2 incubator for 6 hours. The cells after incubation were rinsed with PBS (Invitrogen), then scraped off using 0.05% trypsin-EDTA solution (Invitrogen) and recovered by centrifugation. The cells collected were counted and diluted to contain 5×10^4 cells per 100 μl of the medium. The dilution was dispensed in a black walled 96-well plate (Costar) at a density of 100 μl/well, followed by incubation overnight in a CO2 incubator. Various samples were added to the CHO-K1 cells, which transiently expressed the receptor by the transfection procedure described above, and a change in intracellular calcium level was measured using FLIPR (Molecular Device). To measure the change in intracellular calcium level on FILPR; the cells were pretreated as follows. First, an assay buffer was prepared to add fluorescent dye Fluo3-AM (DOJIN) to the cells, or to wash the cells immediately before the FLIPR assay. A solution was prepared by adding 20 ml of 1M HEPES (pH 7.4) (DOJIN) to 1000 ml of HBSS (Invitrogen) (hereinafter, HBSS/HEPES solution). After 710 mg of probenecid (Sigma) was dissolved in 5 nil of 1N NaOH, 5 ml of the HBSS/HEPES solution was further added to the solution and the two solutions were mixed with each other. Then, 10 ml of the solution mixture was added to the HBSS/HEPES solution and the resulting solution was used as the assay buffer. Next, 50 μg of Fluo3-AM was added to 21 μl of DMSO (DOJIN) and an equal volume of 20% pluronic acid (Molecular Probes) was added thereto, followed by mixing them. […] Following the pretreatment above, a change in intracellular calcium level was determined with FLIPR, after various test samples were added.

For data set [4], the target named is T2, mouse 14273 (Mus musculus, UniProt Q7TMA4).
T2 construct: expressed in transfected cells; host or cells: CHO-K1, transient transfection (Lipofectamine) with the pAKKO-111-based expression vector
T2 sequence (Q7TMA4 1-361): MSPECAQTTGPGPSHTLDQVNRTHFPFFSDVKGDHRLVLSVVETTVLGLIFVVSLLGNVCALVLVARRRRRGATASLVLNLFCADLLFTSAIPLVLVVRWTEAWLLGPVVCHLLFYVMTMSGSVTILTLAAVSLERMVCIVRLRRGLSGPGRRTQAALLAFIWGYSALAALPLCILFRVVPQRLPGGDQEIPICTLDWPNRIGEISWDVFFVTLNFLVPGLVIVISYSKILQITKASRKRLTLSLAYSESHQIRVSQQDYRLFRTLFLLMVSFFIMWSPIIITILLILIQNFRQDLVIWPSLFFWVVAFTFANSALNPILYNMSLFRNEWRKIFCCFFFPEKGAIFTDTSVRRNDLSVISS
Nature of the data set: Change in intracellular calcium level (FLIPR) in CHO-K1 cells transiently expressing mouse 14273. The following applies: 30 μM fatty acid (FIG. 1-5); mouse 14273-expressed CHO-K1 cells; no response in expression vector alone-transfected control cells. The class given is cell-based. The protocol: as §1

Data set [5] addresses T1, human 14273. Nature of the data set: Effects of fatty acids on cAMP production in human 14273-expressed CHO cells. The class given is cell-based. The following applies: in the presence of forskolin (2 μM); fatty acid 30 μM (FIG. 9); not observed in control CHO cells without human 14273. The method, then: After the reaction, the cells were lysed in accordance with the formulation of cAMP Screen (ABI) and the intracellular cAMP level was assayed.

Data set [6] relates to mouse 14273-GFP fused protein. Nature of the data set: Suppression of expression of mouse 14273-GFP fused protein by siRNA in CHO cells (enzyme immunoassay). The data set is classed as cell-based. The following applies: siRNA 20 nM cotransfected to CHO cells, incubation for a day; absorbance at 450 nm. The protocol: After the culture supernatant was discarded and the cells were washed with HBSS (Invitrogen), the cells were fixed with 0.01% glutaraldehyde (Wako Pure Chemical) for 5 minutes, followed by blocking with 2% BSA-containing PBS (Takara Shuzo). Anti-GFP monoclonal antibody 3E6 (Nippon Gene) diluted to 500-fold was added to the cells. After incubation at room temperature for 2 hours, the cells were washed and HRP-labeled anti-mouse IgG antibody (ICN) diluted to 500-fold was added thereto, followed by incubation at room temperature for 2 hours. After washing, TMB microwell peroxidase substrate (Funakoshi) was added to the cells. After incubation for 30 minutes, sulfuric acid was added to discontinue the color-forming reaction and absorbance was measured at 450 nm.

For the molecule `CC/C=C\C/C=C\C/C=C\CCCCCCCC(=O)O` [α-linoleic acid], the “suppression of ACTH secretion induced by CRF” value (from here on “suppression … by CRF”) in data set [1] is “suppression of ACTH secretion induced by CRF was observed more significantly”.

For the molecule `CCCCC/C=C\C/C=C\CCCCCCCC(=O)OC` [methyl linoleate], the “glycerol production increased by isoproterenol stimulation (lipolysis)” value in data set [2] is “such an activity was not observed”.

Regarding `CCCCC/C=C\C/C=C\CCCCCCCC(=O)O` [linoleic acid], the “change in intracellular calcium level” value in data set [3] and in data set [4] was “specifically responded (increased the intracellular calcium level)” each time. Further, in data set [5], the “cAMP production suppressing activity” value is on record as “showed the cAMP production suppressing activity”.

Take `CCCCCCCC/C=C\CCCCCCCC(=O)O` [oleic acid]: the “cAMP production suppressing activity” value in data set [5] is “showed the cAMP production suppressing activity”.

As to `CCCCC/C=C\C/C=C\C/C=C\CCCCC(=O)O` [γ-linolenic acid], the “change in intracellular calcium level” value in data set [3] and in data set [4] was “specifically responded (increased the intracellular calcium level)” throughout. For the same molecule, in data set [1], the “suppression … by CRF” value was “suppression of ACTH secretion induced by CRF was observed more significantly”. Also, the “glycerol production increased by isoproterenol stimulation (lipolysis)” value in data set [2] is recorded as “resulted in lowering the glycerol production”. The “cAMP production suppressing activity” value in data set [5] is given as “showed the cAMP production suppressing activity”.

Regarding `CCCC(=O)O` [butyric acid], the “suppression … by CRF” value in data set [1] was “did not show any significant suppression”. Moreover, the “cAMP production suppressing activity” value in data set [5] is given as “did not show any suppressing activity”.

Consider `CCCCCC/C=C\CCCCCCCC(=O)O` [Palmitoleic acid], for which the “change in intracellular calcium level” value in data set [3] and in data set [4] was “specifically responded (increased the intracellular calcium level)” each time.

Take “m14i561: mouse 14273-specific siRNA; sense strand SEQ ID NO: 21, antisense strand SEQ ID NO: 22 (sense GGACCAGGAAAUUCCGAUUNN; antisense NNCCUGGUCCUUUAAGGCUAA; chemistry not fully specified; one strand is listed 3' to 5')”: in data set [6], the “suppression of the expression level of pAKKO-14273-GFP” value was 97%.

On to `CCCCC/C=C\C/C=C\C/C=C\C/C=C\CCCC(=O)O` [arachidonic acid], for which the “change in intracellular calcium level” value in data set [3] and in data set [4] was “specifically responded (increased the intracellular calcium level)” throughout.

The values are drawn from patent publication US20080160033A1, “Novel Screening Method” (Takeda Pharmaceutical Company Limited, priority 2003, published 2008).
